From the NIST ThermoML archive (doi:10.1016/j.jct.2005.06.011)
Numbers after ± are expanded uncertainties.

Legend:
[1] = refractive index (Na D-line) (dimensionless); settings: 101.33 kPa, Liquid
[2] = 101 kPa, Liquid; for speed of sound: Linear variable-path acoustic interferometer
[3] = refractive index (Na D-line) (dimensionless); xn = mol fraction of the nth substance listed; settings: 101 kPa, Liquid
[4] = xn = mol fraction of the nth substance listed; settings: 101 kPa, Liquid; for speed of sound: Linear variable-path acoustic interferometer

CC(C)CO [2-methyl-1-propanol]
Settings	mass density, 298.15 K [kg/m3]	mass density, 303.15 K [kg/m3]	mass density, 308.15 K [kg/m3]	refractive index, 298.15 K	refractive index, 303.15 K	refractive index, 308.15 K	speed of sound, 298.15 K [m/s]	viscosity, 298.15 K [mPa·s]	viscosity, 303.15 K [mPa·s]	viscosity, 308.15 K [mPa·s]
[1]	–	–	–	1.3932 ± 0.0013	1.3917 ± 0.0013	1.3896 ± 0.0013	–	–	–	–
[2]	809.31 ± 8.1	805.23 ± 8.1	801.11 ± 8	–	–	–	1170 ± 4	3.097 ± 0.038	2.635 ± 0.032	2.249 ± 0.028

CC(C)CCO [3-methylbutan-1-ol]
Settings	mass density, 298.15 K [kg/m3]	mass density, 303.15 K [kg/m3]	mass density, 308.15 K [kg/m3]	refractive index, 298.15 K	refractive index, 303.15 K	refractive index, 308.15 K	speed of sound, 298.15 K [m/s]	viscosity, 298.15 K [mPa·s]	viscosity, 303.15 K [mPa·s]	viscosity, 308.15 K [mPa·s]
[1]	–	–	–	1.4056 ± 0.0013	1.4034 ± 0.0013	1.4013 ± 0.0013	–	–	–	–
[2]	820.17 ± 8.2	816.28 ± 8.2	812.34 ± 8.1	–	–	–	1259 ± 4	2.779 ± 0.034	2.258 ± 0.028	1.844 ± 0.023

CCCCO [butan-1-ol]
Settings	mass density, 298.15 K [kg/m3]	mass density, 303.15 K [kg/m3]	mass density, 308.15 K [kg/m3]	refractive index, 298.15 K	refractive index, 303.15 K	refractive index, 308.15 K	speed of sound, 298.15 K [m/s]	viscosity, 298.15 K [mPa·s]	viscosity, 303.15 K [mPa·s]	viscosity, 308.15 K [mPa·s]
[1]	–	–	–	1.3983 ± 0.0025	1.3959 ± 0.0025	1.394 ± 0.0025	–	–	–	–
[2]	808.49 ± 8.1	804.6 ± 8.1	800.67 ± 8	–	–	–	1268 ± 4	2.587 ± 0.032	2.254 ± 0.028	1.988 ± 0.025

CCO [ethanol]
Settings	mass density, 298.15 K [kg/m3]	mass density, 303.15 K [kg/m3]	mass density, 308.15 K [kg/m3]	refractive index, 298.15 K	refractive index, 303.15 K	refractive index, 308.15 K	speed of sound, 298.15 K [m/s]	viscosity, 298.15 K [mPa·s]	viscosity, 303.15 K [mPa·s]	viscosity, 308.15 K [mPa·s]
[1]	–	–	–	1.3608 ± 0.0012	1.3589 ± 0.0012	1.3563 ± 0.0012	–	–	–	–
[2]	785.66 ± 7.9	781.34 ± 7.8	776.99 ± 7.8	–	–	–	1161 ± 4	1.083 ± 0.013	0.985 ± 0.012	0.8954 ± 0.011

CC1CCCCC1 [methylcyclohexane]
Settings	mass density, 298.15 K [kg/m3]	mass density, 303.15 K [kg/m3]	mass density, 308.15 K [kg/m3]	refractive index, 298.15 K	refractive index, 303.15 K	refractive index, 308.15 K	speed of sound, 298.15 K [m/s]	viscosity, 298.15 K [mPa·s]	viscosity, 303.15 K [mPa·s]	viscosity, 308.15 K [mPa·s]
[1]	–	–	–	1.4217 ± 0.0013	1.4192 ± 0.0013	1.4163 ± 0.0013	–	–	–	–
[2]	764.99 ± 7.7	760.66 ± 7.6	756.3 ± 7.6	–	–	–	1217 ± 4	0.6757 ± 0.0095	0.631 ± 0.0089	0.5902 ± 0.0085

CC1CCCCC1 [methylcyclohexane] + CCCO
Settings	mass density, 298.15 K [kg/m3]	mass density, 303.15 K [kg/m3]	mass density, 308.15 K [kg/m3]	refractive index, 298.15 K	refractive index, 303.15 K	refractive index, 308.15 K	speed of sound, 298.15 K [m/s]	viscosity, 298.15 K [mPa·s]	viscosity, 303.15 K [mPa·s]	viscosity, 308.15 K [mPa·s]
[3], x1 = 0.1008	–	–	–	1.3888 ± 0.0012	1.3865 ± 0.0012	1.3841 ± 0.0012	–	–	–	–
[3], x1 = 0.2027	–	–	–	1.3934 ± 0.0012	1.391 ± 0.0012	1.3886 ± 0.0012	–	–	–	–
[3], x1 = 0.3047	–	–	–	1.3979 ± 0.0012	1.3955 ± 0.0012	1.3932 ± 0.0012	–	–	–	–
[3], x1 = 0.4039	–	–	–	1.4016 ± 0.0012	1.3994 ± 0.0012	1.3971 ± 0.0012	–	–	–	–
[3], x1 = 0.5031	–	–	–	1.4053 ± 0.0012	1.4032 ± 0.0012	1.4011 ± 0.0012	–	–	–	–
[3], x1 = 0.6008	–	–	–	1.409 ± 0.0013	1.4066 ± 0.0013	1.4043 ± 0.0013	–	–	–	–
[3], x1 = 0.6985	–	–	–	1.4127 ± 0.0013	1.4101 ± 0.0013	1.4075 ± 0.0013	–	–	–	–
[3], x1 = 0.799	–	–	–	1.4159 ± 0.0013	1.4133 ± 0.0013	1.4106 ± 0.0013	–	–	–	–
[3], x1 = 0.8995	–	–	–	1.4191 ± 0.0013	1.4164 ± 0.0013	1.4137 ± 0.0013	–	–	–	–
[3], x1 = 1	–	–	–	1.4217 ± 0.0013	1.4192 ± 0.0013	1.4163 ± 0.0013	–	–	–	–
[4], x1 = 0.1008	801.22 ± 8	796.96 ± 8	792.71 ± 7.9	–	–	–	1207 ± 4	1.729 ± 0.021	1.536 ± 0.019	1.343 ± 0.016
[4], x1 = 0.2027	794.2 ± 8	789.87 ± 7.9	785.57 ± 7.9	–	–	–	1208 ± 4	1.471 ± 0.018	1.317 ± 0.016	1.162 ± 0.015
[4], x1 = 0.3047	788.08 ± 7.9	783.7 ± 7.8	779.32 ± 7.8	–	–	–	1209 ± 4	1.26 ± 0.016	1.136 ± 0.014	1.013 ± 0.013
[4], x1 = 0.4039	782.97 ± 7.8	778.55 ± 7.8	774.13 ± 7.8	–	–	–	1210 ± 4	1.102 ± 0.014	0.9975 ± 0.013	0.8926 ± 0.012
[4], x1 = 0.5031	778.56 ± 7.8	774.16 ± 7.8	769.74 ± 7.7	–	–	–	1212 ± 4	0.9688 ± 0.013	0.8863 ± 0.012	0.8037 ± 0.011
[4], x1 = 0.6008	774.91 ± 7.8	770.45 ± 7.7	765.97 ± 7.7	–	–	–	1213 ± 4	0.8839 ± 0.012	0.813 ± 0.011	0.742 ± 0.01
[4], x1 = 0.6985	771.66 ± 7.7	767.2 ± 7.7	762.69 ± 7.7	–	–	–	1214 ± 4	0.7998 ± 0.011	0.7403 ± 0.01	0.6808 ± 0.0094
[4], x1 = 0.799	768.83 ± 7.7	764.32 ± 7.7	759.8 ± 7.6	–	–	–	1215 ± 4	0.7511 ± 0.01	0.6984 ± 0.0096	0.6457 ± 0.009
[4], x1 = 0.8995	766.39 ± 7.7	761.95 ± 7.6	757.5 ± 7.6	–	–	–	1216 ± 4	0.7028 ± 0.0097	0.6568 ± 0.0092	0.6107 ± 0.0087
[4], x1 = 1	764.99 ± 7.7	760.66 ± 7.6	756.3 ± 7.6	–	–	–	1217 ± 4	0.6757 ± 0.0095	0.631 ± 0.0089	0.5902 ± 0.0085
